# In PubChem BioAssay AID256 (DTP/NCI, 2004):
# Where “and” joins values, the source holds several entries; their conditions need not be identical. Equal entries are not always repeated. Inconclusive results and toxic doses are left out.
# Test system: CD2F1 mice, L1210 leukemia ip, survival T/C
# Experiment: NCI In Vivo Anticancer Drug Screen. Data for tumor model L1210 Leukemia (intraperitoneal) in CD2F1 (CDF1) mice
# Details: higher = longer survival
# Outline: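 Compound-dosed mice with transplantable tumor versus matched vehicle controls; endpoint ratio T/C reported.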
# [1] = endpoint: mean survival time, dose: 6.25 mg/kg/injection, schedule: Q01DX009 (ip), vehicle: saline with Tween-80
# [2] = endpoint: mean survival time, dose: 12.5 mg/kg/injection, schedule: Q01DX009 (ip), vehicle: saline with Tween-80
# [3] = endpoint: mean survival time, dose: 100.0 mg/kg/injection, schedule: Q01DX001 (ip), vehicle: saline with Tween-80
# [4] = endpoint: mean survival time, dose: 100.0 mg/kg/injection, schedule: Q01DX001 (ip), vehicle: Klucel (hydroxypropylcellulose) (HPC)
# [5] = endpoint: mean survival time, dose: 200.0 mg/kg/injection, schedule: Q01DX001 (ip), vehicle: Klucel (hydroxypropylcellulose) (HPC)
# [6] = endpoint: mean survival time, dose: 400.0 mg/kg/injection, schedule: Q01DX001 (ip), vehicle: Klucel (hydroxypropylcellulose) (HPC)
smiles,measurement,setting,value
NC(=S)N/N=C/c1ccccn1,T/C,"endpoint: mean survival time, dose: 1.56 mg/kg/injection, schedule: Q04DX002 (ip), vehicle: Klucel (hydroxypropylcellulose) (HPC)",108 % of control
same,T/C,"endpoint: mean survival time, dose: 3.12 mg/kg/injection, schedule: Q04DX002 (ip), vehicle: Klucel (hydroxypropylcellulose) (HPC)",112 % of control
same,T/C,"endpoint: mean survival time, dose: 6.25 mg/kg/injection, schedule: Q04DX002 (ip), vehicle: Klucel (hydroxypropylcellulose) (HPC)",92 % of control
same,T/C,"endpoint: mean survival time, dose: 6.7 mg/kg/injection, schedule: Q01DX009 (ip), vehicle: saline with Tween-80",151 % of control
same,T/C,"endpoint: mean survival time, dose: 10.0 mg/kg/injection, schedule: Q01DX009 (ip), vehicle: saline with Tween-80",107 % of control
same,T/C,"endpoint: mean survival time, dose: 15.0 mg/kg/injection, schedule: Q01DX009 (ip), vehicle: saline with Tween-80",93 % of control
Nc1nc(N)c2c(n1)NCN(CCc1ccccc1Cl)C2,T/C,"endpoint: mean survival time, dose: 0.75 mg/kg/injection, schedule: Q01DX009 (ip), vehicle: distilled water + Tween-80",93 % of control
same,T/C,"endpoint: mean survival time, dose: 1.5 mg/kg/injection, schedule: Q01DX009 (ip), vehicle: distilled water + Tween-80",98 % of control
same,T/C,"endpoint: mean survival time, dose: 3.0 mg/kg/injection, schedule: Q01DX009 (ip), vehicle: distilled water + Tween-80",94 % of control
same,T/C,"endpoint: mean survival time, dose: 6.0 mg/kg/injection, schedule: Q01DX009 (ip), vehicle: distilled water + Tween-80",100 % of control
same,T/C,"endpoint: mean survival time, dose: 12.0 mg/kg/injection, schedule: Q01DX009 (ip), vehicle: distilled water + Tween-80",94 % of control
same,T/C,"endpoint: mean survival time, dose: 24.0 mg/kg/injection, schedule: Q01DX009 (ip), vehicle: distilled water + Tween-80",102 % of control
same,T/C,"endpoint: mean survival time, dose: 48.0 mg/kg/injection, schedule: Q01DX009 (ip), vehicle: distilled water + Tween-80",96 % of control
same,T/C,"endpoint: mean survival time, dose: 80.0 mg/kg/injection, schedule: Q01DX009 (ip), vehicle: distilled water + Tween-80",96 % of control
Cc1cccc(C)c1N=NN(C)C,T/C,[1],107 % of control
same,T/C,"endpoint: mean survival time, dose: 12.5 mg/kg/injection, schedule: Q01DX009 (ip), vehicle: other",90 % of control
same,T/C,[2],104 % of control
same,T/C,"endpoint: mean survival time, dose: 25.0 mg/kg/injection, schedule: Q01DX009 (ip), vehicle: other",100 % of control
same,T/C,"endpoint: mean survival time, dose: 25.0 mg/kg/injection, schedule: Q01DX009 (ip), vehicle: saline with Tween-80",118 % of control
CCCCCCCCCCCCC1C(=O)NC(=O)NC1=O,T/C,"endpoint: mean survival time, dose: 75.0 mg/kg/injection, schedule: Q01DX001 (ip), vehicle: saline",100 % of control
same,T/C,"endpoint: mean survival time, dose: 150.0 mg/kg/injection, schedule: Q01DX001 (ip), vehicle: saline",99 % of control
same,T/C,"endpoint: mean survival time, dose: 300.0 mg/kg/injection, schedule: Q01DX001 (ip), vehicle: saline",97 % of control
O=[N+]([O-])/C=C\c1cc2c3c(c1)CCCN3CCC2,T/C,"endpoint: mean survival time, dose: 3.13 mg/kg/injection, schedule: Q01DX009 (ip), vehicle: saline with Tween-80",105 % of control
same,T/C,[1],97 % of control
same,T/C,[2],100 % of control
same,T/C,"endpoint: mean survival time, dose: 50.0 mg/kg/injection, schedule: Q01DX001 (ip), vehicle: saline with Tween-80",105 % of control
same,T/C,[3],103 % of control
O=C(CCl)c1cccnc1C(=O)O,T/C,"endpoint: mean survival time, dose: 100.0 mg/kg/injection, schedule: Q04DX003 (ip), vehicle: saline with Tween-80",98 % of control
CC1=CCCC2(CCC3(C)CC32)C1(C)C (configuration not stated),T/C,"endpoint: mean survival time, dose: 100.0 mg/kg/injection, schedule: Q04DX003 (ip), vehicle: acetone",98 % of control
same,T/C,"endpoint: mean survival time, dose: 200.0 mg/kg/injection, schedule: Q04DX003 (ip), vehicle: acetone",102 % of control
same,T/C,"endpoint: mean survival time, dose: 400.0 mg/kg/injection, schedule: Q04DX003 (ip), vehicle: acetone",110 % of control
Cc1ccc(NC(=O)NCCCCCCNC(=O)Nc2ccc(C)c(Cl)c2)cc1Cl,T/C,[3],89 % of control
same,T/C,"endpoint: mean survival time, dose: 400.0 mg/kg/injection, schedule: Q01DX001 (ip), vehicle: saline with Tween-80",91 % of control
Cc1cc(C)c(C(=O)O)c(C(=O)O)c1,T/C,[4],106 % of control
same,T/C,[5],95 % of control
same,T/C,[6],106 % of control
COc1cc(CCl)ccc1OCc1ccccc1,T/C,"endpoint: mean survival time, dose: 100.0 mg/kg/injection, schedule: Q04DX003 (ip), vehicle: other",98 % of control
same,T/C,"endpoint: mean survival time, dose: 200.0 mg/kg/injection, schedule: Q04DX003 (ip), vehicle: other",98 % of control
same,T/C,"endpoint: mean survival time, dose: 400.0 mg/kg/injection, schedule: Q04DX003 (ip), vehicle: other",109 % of control
CSCCC(NC(=O)COc1ccc(Cl)cc1Cl)C(=O)O (configuration not stated),T/C,"endpoint: mean survival time, dose: 50.0 mg/kg/injection, schedule: Q01DX009 (ip), vehicle: Klucel (hydroxypropylcellulose) (HPC)",100 % of control
same,T/C,"endpoint: mean survival time, dose: 100.0 mg/kg/injection, schedule: Q01DX009 (ip), vehicle: Klucel (hydroxypropylcellulose) (HPC)",89 % of control
same,T/C,"endpoint: mean survival time, dose: 200.0 mg/kg/injection, schedule: Q01DX009 (ip), vehicle: Klucel (hydroxypropylcellulose) (HPC)",91 % of control
ClC(Cl)(Cl)c1nc2nccnc2[nH]1,T/C,"endpoint: mean survival time, dose: 25.0 mg/kg/injection, schedule: Q01DX009 (ip), vehicle: saline sonified",100 % of control
same,T/C,"endpoint: mean survival time, dose: 50.0 mg/kg/injection, schedule: Q01DX009 (ip), vehicle: saline sonified",104 % of control
same,T/C,"endpoint: mean survival time, dose: 100.0 mg/kg/injection, schedule: Q01DX009 (ip), vehicle: saline sonified",94 % of control
O=C(Nc1cccc(F)c1)c1c(O)[nH]c(=S)[nH]c1=O,T/C,"endpoint: median survival time, dose: 25.0 mg/kg/injection, schedule: Q01DX009 (ip), vehicle: saline with Tween-80",114 % of control and 106 % of control
same,T/C,"endpoint: median survival time, dose: 50.0 mg/kg/injection, schedule: Q01DX009 (ip), vehicle: saline with Tween-80",113 % of control and 114 % of control
same,T/C,"endpoint: median survival time, dose: 100.0 mg/kg/injection, schedule: Q01DX009 (ip), vehicle: saline with Tween-80",117 % of control
same,T/C,"endpoint: median survival time, dose: 200.0 mg/kg/injection, schedule: Q01DX009 (ip), vehicle: saline with Tween-80",155 % of control
CC(=O)CC(C)(C)S(=O)(=O)Cc1ccccc1,T/C,[4],93 % of control
same,T/C,[5],96 % of control
same,T/C,[6],96 % of control
